# Assay results as given in patent US8609100B2, “Method for inhibiting dendritic cell immunoreceptor (DCIR)-mediated human immunodeficiency virus infection comprising administering anti-DCIR antibodies” (Universite Laval, priority 2008, dated 2013).
# Tests used:
# [1] = test system: HIV-1 (NL4-3balenv); assay: HIV-1 transfer assay: virus-pulsed IM-MDDC co-cultured with autologous CD4+ T cells, p24 ELISA; type: cell-based, human immunodeficiency virus type 1
# Experimental: HIV-1 transfer assay: IM-MDDC (10^5 cells in 100 μl) transfected either with the above listed siRNAs or pre-incubated with polyclonal anti-DCIR (10 μg/1.5×10^5 cells) were exposed to HIV-1 (10 ng of p24) for 60 min at 37° C. Next, the virus-cell mixture was washed three times with PBS to remove unadsorbed virions. In some experiments, cells were also treated with the anti-HIV-1 drug EFV (efavirenz) (50 μM). Finally, IM-MDDC were co-cultured with autologous activated CD4^+ T lymphocytes at a 1:3 ratio in complete RPMI-1640 medium supplemented with IL-2 (30 U/ml) in 96-well plates in a final volume of 200 μl. At day 2, virus production was estimated by measuring p24 levels in cell-free culture supernatants by ELISA.
# (§1) We next evaluated the transfer of HIV to autologous CD4^+ T cells. To that effect, IM-MDDC (1×10^6 cells) were treated with Oligofectamine and then either left untreated (control) or exposed to a non-specific siRNA and a DCIR-specific siRNA. Next, cells (1×10^5) were pulsed with NL4-3balenv (10 ng of p24) for 60 min at 37° C. After three washes with PBS to eliminate unbound virus, IM-MDDC were co-cultured with autologous CD4^+ T cells at a 1:3 ratio. Cell-free culture supernatants were collected at day 2 following initiation of the co-culture and analyzed for the p24 content. Data shown in FIG. 3 represent the means±SD of triplicate samples from three combined independent experiments. Asterisks denote statistically significant data (***, P<0.001).
# as §1, with “In FIG. 4A,” for “We next evaluated the transfer of HIV to autologous CD4^+ T cells. To that effect,”, “were either left untreated or treated with EFV. IM-MDDC (2×10^5 cells)” for “(1×10^5)”, “(20” for “(10”, “shown” for “shown in FIG. 3”, “two different donors and are representative of four separate donors.” for “three combined independent experiments.”, “(*, P<0.05, **, P<0.01).” for “(***, P<0.001).”
# (§2) In FIG. 5 left panels, IM-MDDC (2×10^5 cells) were initially treated with either a control Ab or a polyclonal anti-DCIR (10 μg per 1.5×10^5 cells). Next, cells were extensively washed to eliminate excess Ab and pulsed with NL4-3balenv (20 ng of p24) for 2 hrs at 37° C. […] Cell-free culture supernatants were collected at the indicated time points and analyzed for the p24 content. […] Cell-free culture supernatants were collected at day 2 following initiation of the co-culture and analyzed for the p24 content. […]
# [2] = test system: DCIR; assay: DCIR surface expression in siRNA-transfected IM-MDDC by flow cytometry; type: cell-based, human; conditions: 40 hrs after siRNA transfection, FIG. 2
# Experimental: Flow cytometric analysis: Cell surface expression of DCIR was monitored by flow cytometric analysis with a flow cytometry apparatus (Epics ELITE ESP, Coulter Electronics, Burlington, ON). Before staining, cells were incubated for 15 min at 4° C. with 10% pooled human sera to block non-specific binding sites and washed once with phosphate buffered saline (PBS) supplemented with 0.5% bovine serum albumin (BSA). Next, cells were incubated for 45 min at 4° C. with anti-DCIR (0.25 μg) monoclonal Ab and then washed twice with PBS and 0.5% BSA. Non-specific staining was determined by using an isotype-matched irrelevant control Ab. After two final washes with PBS, cells were fixed in 2% paraformaldehyde and analyzed.
# Gene silencing of DCIR with siRNAs: Small interfering RNAs (siRNAs) either specific (i.e. 5′-ATTTAGGTGGTCTGTCA-3′; [SEQ ID NO:11]) or non-specific for DCIR (i.e. 5′-[…]-3′; [SEQ ID NO:45]) were obtained from Qiagen and dissolved in an appropriate buffer. The studied siRNAs were subsequently tested in IM-MDDC as previously described 2. Control cells were treated with either Oligofectamine alone or Oligofectamine and non-specific siRNAs. […] The efficiency of DCIR silencing with the tested siRNA was monitored by flow cytometry.
# We thus employed RNA interference to reduce DCIR expression in IM-MDDC and analyzed the possible effect on HIV-1 transfer. […]
# [3] = test system: DC-SIGN; assay: DC-SIGN expression in IM-MDDC after DCIR-specific siRNA; type: cell-based, human; conditions: IM-MDDC transfected with siRNA; data not shown
# Source text: (§3) A ˜30% decrease in surface expression of DCIR in IM-MDDC was observed following the use of DCIR-specific siRNA (FIG. 2).
# [4] = test system: IM-MDDC; type: cell-based, human
# Source text: as §3
# [5] = test system: HIV-1 (NL4-3balenv); assay: HIV-1 infection of IM-MDDC: virus production by p24 ELISA; type: cell-based, human immunodeficiency virus type 1; conditions: siRNA-transfected IM-MDDC pulsed with NL4-3balenv 20 ng p24 for 2 hrs; FIG. 4C
# Experimental: HIV-1 infection of IM-MDDC: IM-MDDC (2×10^5 cells in a final volume of 100 μl) either transfected with the studied siRNAs or pre-incubated with the above mentioned polyclonal anti-DCIR were exposed to HIV-1 (20 ng of p24) for 2 hr at 37° C. After three washes with PBS, cells were maintained in complete RPMI-1640 culture medium supplemented with GM-CSF (1,000 U/ml) and IL-4 (200 U/ml) in 96-well plates in a final volume of 200 μl. Every 3 days and for a period lasting 9 days, half of the medium was removed and kept frozen at −20° C. until assayed. Virus production was estimated by measuring p24 levels in culture supernatants by ELISA. […]
# In FIG. 4C, IM-MDDC were treated with Oligofectamine and then either left untreated (control) or exposed to a non-specific siRNA and a DCIR-specific siRNA. […] Cell-free culture supernatants were collected at the indicated time points and analyzed for the p24 content. […]
# as §2, with “cells).” for “cells). Next, cells were extensively washed to eliminate excess Ab and pulsed with NL4-3balenv (20 ng of p24) for 2 hrs at 37° C.”
Molecule,"effect on HIV-1 propagation (virus transfer) ([1]; EFV 50 μM added to IM-MDDC, FIG. 4A)",decrease in surface expression of DCIR in IM-MDDC [2] [%],DC-SIGN expression [3],cells viability [4],"reduction in virus transfer (average diminution) ([1]; cells treated with EFV (50 μM), NL4-3balenv 20 ng p24, co-culture day 2, FIG. 4A) [%]","reduction in virus transfer (average decrease) ([1]; in absence of EFV, NL4-3balenv 20 ng p24, co-culture day 2, FIG. 4A) [%]","transfer of HIV-1 from IM-MDDC to autologous CD4+ T cells (p24 content) ([1]; siRNA-transfected IM-MDDC pulsed with NL4-3balenv 10 ng p24 for 60 min, co-culture 1:3, day 2, FIG. 3)",de novo virus production in IM-MDDC (p24) [5]
"O=C1Nc2ccc(Cl)cc2[C@@](C#CC2CC2)(C(F)(F)F)O1 [EFV, efavirenz, reference compound]",limited effect,,,,,,,
"DCIR-specific siRNA: siRNA specific for DCIR, 5′-ATTTAGGTGGTCTGTCA-3′ [SEQ ID NO:11], obtained from Qiagen (chemistry not given here)",,~30,not affected,minimally affected,40,30,reduced significantly,decrease
